Source: patent US20240366589A1, “NHE3-BINDING COMPOUNDS AND METHODS FOR INHIBITING PHOSPHATE TRANSPORT” (Ardelyx, Inc., priority 2013, published 2024)

Columns and labels:
[1] = target: T1, Rat NHE3 (Rattus norvegicus, UniProt P26433); test: Cell-based NHE3 activity under prompt conditions (OK cells, BCECF pH recovery), rat NHE3; details: prompt conditions
T1 construct: expressed in transfected cells; host or cells: Opossum kidney (OK) cells (ATCC), electroporation
Summary of the method: (§1)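 OK cells electroporated with rat or human NHE3 gene, loaded 30 min at room temperature with 5 μM BCECF-AM in NH4Cl-HEPES pH 7.4.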

[2] = test system: absorption of sodium from the intestinal lumen; test: Fecal form score (FFS) 16 h after oral dose in rats; type: in vivo, rat; details: oral gavage, 16 h post-dose, scale 1-5
Summary of the method: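 Eight-week-old Sprague-Dawley rats (n=6) dosed by oral gavage with compound or water vehicle between 4 and 5 PM, then housed in metabolic cages with food and water ad libitum. At 16 h, fecal form scored 1 (normal pellet) to 5 (liquid streams) by two observers; group mean reported.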

[3] = test system: absorption of sodium from the intestinal lumen; test: Inhibition of intestinal sodium absorption: urinary sodium (uNa) 16 h after single oral dose in rats; type: in vivo, rat; details: oral gavage, 16 h post-dose
Summary of the method: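 Eight-week-old Sprague-Dawley rats (n=6) given single oral gavage of compound or water vehicle in the late afternoon, then kept in metabolic cages with chow and water ad libitum. Urine collected over 16 h; sodium quantified by ion chromatography and expressed as % of vehicle mean, compared by one-way ANOVA with Dunnett's test.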

[4] = test system: phosphorus and calcium levels in the urine of rats; test: Urinary excretion of phosphate and calcium in rats (16 h overnight urine); type: in vivo, rat; details: rats, oral gavage, 16 h post-dose
[5] = target: T2, Human NHE3 (Homo sapiens, UniProt P48764); test: Cell-based NHE3 activity under prompt conditions (OK cells, BCECF pH recovery), human NHE3; details: prompt conditions
T2 construct: expressed in transfected cells; host or cells: Opossum kidney (OK) cells (ATCC), electroporation
T2 sequence (P48764 26-834): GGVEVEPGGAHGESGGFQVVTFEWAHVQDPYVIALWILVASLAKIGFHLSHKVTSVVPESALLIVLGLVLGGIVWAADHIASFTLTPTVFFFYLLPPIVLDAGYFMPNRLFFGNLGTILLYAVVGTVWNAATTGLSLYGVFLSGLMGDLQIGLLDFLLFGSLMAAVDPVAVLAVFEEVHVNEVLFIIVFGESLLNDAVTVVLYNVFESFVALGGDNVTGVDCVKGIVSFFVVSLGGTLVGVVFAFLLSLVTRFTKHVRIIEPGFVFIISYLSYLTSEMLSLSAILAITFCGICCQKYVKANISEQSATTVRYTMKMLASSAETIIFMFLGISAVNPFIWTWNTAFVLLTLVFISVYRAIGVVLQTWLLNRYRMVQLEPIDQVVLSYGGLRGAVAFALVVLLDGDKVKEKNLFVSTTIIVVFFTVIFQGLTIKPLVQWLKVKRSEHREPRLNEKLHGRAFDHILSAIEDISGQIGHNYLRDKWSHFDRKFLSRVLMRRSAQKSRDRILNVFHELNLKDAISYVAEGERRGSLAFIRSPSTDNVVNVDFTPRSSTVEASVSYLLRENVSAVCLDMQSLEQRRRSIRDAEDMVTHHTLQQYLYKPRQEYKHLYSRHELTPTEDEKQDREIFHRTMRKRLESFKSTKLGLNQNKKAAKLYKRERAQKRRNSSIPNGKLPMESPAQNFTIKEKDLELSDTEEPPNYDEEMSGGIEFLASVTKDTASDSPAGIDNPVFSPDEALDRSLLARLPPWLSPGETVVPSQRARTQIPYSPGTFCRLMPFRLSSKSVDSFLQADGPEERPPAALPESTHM
Summary of the method: as §1

T1 sequence (P26433 29-831): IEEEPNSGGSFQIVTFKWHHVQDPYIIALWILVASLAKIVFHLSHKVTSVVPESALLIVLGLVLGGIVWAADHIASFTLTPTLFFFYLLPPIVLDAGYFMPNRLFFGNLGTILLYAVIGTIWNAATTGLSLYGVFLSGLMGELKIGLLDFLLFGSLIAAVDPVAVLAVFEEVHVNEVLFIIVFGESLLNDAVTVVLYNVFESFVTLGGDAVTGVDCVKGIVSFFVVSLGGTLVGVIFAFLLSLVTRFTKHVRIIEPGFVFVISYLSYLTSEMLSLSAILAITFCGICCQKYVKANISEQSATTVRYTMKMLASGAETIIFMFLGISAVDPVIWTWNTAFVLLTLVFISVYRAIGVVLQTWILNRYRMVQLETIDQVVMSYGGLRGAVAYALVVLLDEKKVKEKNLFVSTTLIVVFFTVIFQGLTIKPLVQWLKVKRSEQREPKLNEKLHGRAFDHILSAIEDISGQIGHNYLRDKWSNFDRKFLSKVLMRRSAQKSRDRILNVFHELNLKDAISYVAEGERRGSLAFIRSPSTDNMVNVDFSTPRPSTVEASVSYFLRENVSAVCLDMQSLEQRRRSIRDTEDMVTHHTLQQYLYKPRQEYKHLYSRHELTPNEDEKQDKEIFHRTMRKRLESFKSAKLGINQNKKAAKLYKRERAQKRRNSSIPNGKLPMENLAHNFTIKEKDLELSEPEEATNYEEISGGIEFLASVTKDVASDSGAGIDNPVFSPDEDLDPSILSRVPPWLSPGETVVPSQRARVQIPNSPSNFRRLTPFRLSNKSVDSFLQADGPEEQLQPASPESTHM

| Structure (SMILES) | Prompt Rat NHE3 pIC50 [1] | Fecal Form Score average ([2]; dose 10 mg/kg) | Urine Na % of control ([3]; dose 10 mg/kg) | Urine P % of control ([4]; dose 10 mg/kg) | Prompt Human NHE3 pIC50 [5] | Fecal Form Score average ([2]; dose 1 mg/kg) | Urine Na % of control ([3]; dose 1 mg/kg) | Urine P % of control ([4]; dose 1 mg/kg) |
| --- | --- | --- | --- | --- | --- | --- | --- | --- |
| N=C(N)Nc1nc(-c2ccc(OCCOCCOCCOCCNC(=O)NCCOCCOCCNC(=O)CN(CCN(CC(=O)O)CC(=O)NCCOCCOCCNC(=O)NCCOCCOCCOCCOc3ccc(-c4nc(NC(=N)N)nc5ccc(Cl)cc45)cc3)CC(=O)O)cc2)c2cc(Cl)ccc2n1 [compound 35] | 8.00 | 1 | 65% | 57% | 8.30 | – | – | – |
| N=C(N)Nc1nc(-c2ccc(OCCOCCOCCOCCNC(=O)NCCOCCOCCNC(=O)NCCCCNC(=O)NCCOCCOCCNC(=O)NCCOCCOCCOCCOc3ccc(-c4nc(NC(=N)N)nc5ccc(Cl)cc45)cc3)cc2)c2cc(Cl)ccc2n1 [compound 36] | 7.60 | 1 | 85% | 86% | 8.00 | – | – | – |
| N=C(N)Nc1nc(-c2ccc(OCCOCCOCCOCCN)cc2)c2cc(Cl)ccc2n1 [compound 37] | 7.50 | 1 | 63% | 101% | 7.50 | – | – | – |
| CN1Cc2c(Cl)cc(Cl)cc2[C@@H](c2cccc(S(=O)(=O)NCCOCCOCCNC(=O)NCCCCNC(=O)NCCOCCOCCNS(=O)(=O)c3cccc([C@H]4CN(C)Cc5c(Cl)cc(Cl)cc54)c3)c2)C1 [compound 40] | <5.00 | 1 | 90% | 128% | <5.00 | 1 | 80% | 149% |
| N=C(N)Nc1nc(-c2cccc(N3CCN(CCOCCOCCOCCNC(=O)NCCOCCOCCNC(=O)CN(CCN(CC(=O)O)CC(=O)NCCOCCOCCNC(=O)NCCOCCOCCOCCN4CCN(c5cccc(-c6nc(NC(=N)N)nc7ccc(Cl)cc67)c5)CC4)CC(=O)O)CC3)c2)c2cc(Cl)ccc2n1 [compound 41] | 7.90 | 1 | 104% | 133% | 8.20 | – | – | – |
| CN(CC(=O)NCCOCCOCCNC(=O)NCCOCCOCCOCCN1CCN(c2cccc(-c3nc(NC(=N)N)nc4ccc(Cl)cc34)c2)CC1)CC(=O)NCCOCCOCCNC(=O)NCCOCCOCCOCCN1CCN(c2cccc(-c3nc(NC(=N)N)nc4ccc(Cl)cc34)c2)CC1 [compound 42] | 7.70 | 1 | 94% | 94% | 8.20 | – | – | – |
| CN(CC(=O)NCCOCCOCCNC(=O)NCCOCCOCCOCCOc1cccc(-c2nc(NC(=N)N)nc3ccc(Cl)cc23)c1)CC(=O)NCCOCCOCCNC(=O)NCCOCCOCCOCCOc1cccc(-c2nc(NC(=N)N)nc3ccc(Cl)cc23)c1 [compound 43] | 7.50 | 1 | 70% | 101% | 7.70 | – | – | – |
| N=C(N)Nc1nc(-c2cccc(OCCOCCOCCOCCNC(=O)NCCOCCOCCNC(=O)CN(CCN(CC(=O)O)CC(=O)NCCOCCOCCNC(=O)NCCOCCOCCOCCOc3cccc(-c4nc(NC(=N)N)nc5ccc(Cl)cc45)c3)CC(=O)O)c2)c2cc(Cl)ccc2n1 [compound 44] | 7.70 | 1 | 88% | 102% | 7.90 | – | – | – |
| CN(CC(=O)NCCOCCOCCNC(=O)NCCOCCOCCOCCN1CCN(c2ccc(-c3nc(N=C(N)N)nc4ccc(Cl)cc34)cc2)CC1)CC(=O)NCCOCCOCCNC(=O)NCCOCCOCCOCCN1CCN(c2ccc(-c3nc(N=C(N)N)nc4ccc(Cl)cc34)cc2)CC1 [compound 45] | 7.50 | 1 | 97% | 109% | 7.90 | – | – | – |
| NC(N)=Nc1nc(-c2ccc(N3CCN(CCOCCOCCOCCNC(=O)NCCOCCOCCNC(=O)CN(CCN(CC(=O)O)CC(=O)NCCOCCOCCNC(=O)NCCOCCOCCOCCN4CCN(c5ccc(-c6nc(N=C(N)N)nc7ccc(Cl)cc67)cc5)CC4)CC(=O)O)CC3)cc2)c2cc(Cl)ccc2n1 [compound 46] | 7.80 | 1 | 58% | 112% | 7.90 | – | – | – |
| O=C(O)CN(CCN(CC(=O)O)CC(=O)NCCOCCOCCOCCNS(=O)(=O)c1ccc(OC2c3ccccc3CC2N2CCCCC2)cc1)CC(=O)NCCOCCOCCOCCNS(=O)(=O)c1ccc(OC2c3ccccc3CC2N2CCCCC2)cc1 (stereo not drawn) [compound 49] | 7.65 | 1 | 38% | 77% | 7.40 | – | – | – |
| CN(CC(=O)NCCOCCOCCOCCNS(=O)(=O)c1ccc(OC2c3ccccc3CC2N2CCCCC2)cc1)CC(=O)NCCOCCOCCOCCNS(=O)(=O)c1ccc(OC2c3ccccc3CC2N2CCCCC2)cc1 (stereo not drawn) [compound 52] | 7.35 | 1 | 68% | 71% | 7.40 | – | – | – |
| O=C(CCOCCOCCOCCOCCOCCC(=O)NCCOCCOCCOCCNS(=O)(=O)c1ccc(OC2c3ccccc3CC2N2CCCCC2)cc1)NCCOCCOCCOCCNS(=O)(=O)c1ccc(OC2c3ccccc3CC2N2CCCCC2)cc1 (stereo not drawn) [compound 53] | 7.45 | 1 | 100% | 59% | 7.40 | – | – | – |
| CN1Cc2c(Cl)cc(Cl)cc2[C@H](c2cccc(S(=O)(=O)NCCOCCOCCOCCNC(=O)c3cc(C(=O)NCCOCCOCCOCCNS(=O)(=O)c4cccc([C@@H]5CN(C)Cc6c(Cl)cc(Cl)cc65)c4)cc(C(=O)NCCOCCOCCOCCNS(=O)(=O)c4cccc([C@@H]5CN(C)Cc6c(Cl)cc(Cl)cc65)c4)c3)c2)C1 [compound 56] | 6.90 | 2 | 15% | 50% | 7.00 | – | – | – |
| CN1Cc2c(Cl)cc(Cl)cc2[C@H](c2cccc(S(=O)(=O)NCCOCCOCCOCCNC(=O)CN(CC(=O)NCCOCCOCCOCCNS(=O)(=O)c3cccc([C@@H]4CN(C)Cc5c(Cl)cc(Cl)cc54)c3)CC(=O)NCCOCCOCCOCCNS(=O)(=O)c3cccc([C@@H]4CN(C)Cc5c(Cl)cc(Cl)cc54)c3)c2)C1 [compound 57] | 7.10 | 3 | 25% | 75% | 7.50 | – | – | – |
